Measured values from patent US20140364460A1, “USE OF FATOSTATIN FOR TREATING CANCER HAVING A p53 MUTATION” (THE TRUSTEES OF COLUMBIA UNIVERSITY IN THE CITY OF NEW YORK, priority 2012, published 2014).

What was measured:
SKBR3 cells = experiment: Three-dimensional culture of SKBR3 cells; format: cell-based; conditions: 3D culture 8 days, fatostatin 2 or 20 μM added Day 1
Description: (§1) FIG. 3. Fatostatin inhibits SKBR3 cell growth in 3D Culture. SKBR3 cells were grown in 3D cultures for 8 days treated with (A) DMSO, (B) Fatostatin 2 μM or (C) Fatostatin 20 μM. Drugs were added on Day 1. Representative Differential Interference Contrast (DIC) images are shown. Scale bar, 200 μm.
(§2) Three-dimensional culture was carried out as described in Debnath et al., 2003. Briefly, 8-well chamber slides were lined with 50 μl growth factor reduced Matrigel (BD Biosciences). Cells were then seeded at a density of 5,000 cells/well in Assay Medium (DMEM/F12+2% Horse Serum+10 μg/ml Insulin+0.5 μg/ml Hydrocortisone) containing 2% Matrigel. Cells were refed with Assay Medium containing 2% Matrigel every 4 days. For RNA/protein analysis from 3D cultures, 35 mm plates were lined with 500 μl Matrigel and cells were seeded at a density of 225,000 cells/plate in Assay Medium+2% Matrigel. Cells were harvested using Cell Recovery Solution (BD Biosciences) according to the manufacturer's instructions.
SKBR3 cells were grown in 3D cultures for 8 days treated with DMSO, Fatostatin (2 μM) or (20 μM). Drugs were added on Day 1.

[1] = system: mutant p53 binding to the HMG-CoA reductase gene promoter; experiment: Quantitative ChIP of mutant p53 in fatostatin-treated MDA-468.shp53 cells; format: cell-based; conditions: fatostatin 20 μM, six independent experiments, p<0.01
Description: FIG. 1. MDA-468.shp53 cells were treated with fatostatin (20 μM) and subjected to ChIP analysis. Data are presented as mean+−SD of six independent experiments. **p<0.01
Chromatin Immunoprecipitation (ChIP) experiments were carried out as described in Beckerman et al., 2009. Briefly, MDA-468 cells were treated with 1% formaldehyde prior to lysis in RIPA Buffer and sonication to yield 500 bp fragments. Protein A/G Sepharose beads were conjugated to anti-p53 antibodies (1801/D0-1) which were subsequently used to immunoprecipitate p53 from 1 mg whole cell lysate. Quantitative ChIP was carried out on an ABI StepOne Plus using SYBR green dye. Genomic Locations of SRE-1 sites within the promoters of sterol biosynthesis genes were located using a literature search: HMGCS 1 (Inoue et al., 1998), HMGCR (Boone et al., 2009), MVK (Bishop et al., 1998), FDPS (Ishimoto et al., 2010), FDFT1 (Inoue et al., 1998), SQLE (Nagai et al., 2002) and CYP51A1 (Halder et al., 2002), respectively. ChIP primer sequences are provided in Table 2 of PCT/US 11/55488 and are incorporated by reference.
MDA-468.shp53 cells were treated with Fatostatin (20 μM) and subjected to ChIP analysis. FIG. 1. Cells in 3D culture were treated on Day 1 or Day 4 of the 3D protocol and refed every 4 days with fresh drug. Data are presented as mean+−SD of six independent experiments. **p<0.01.

MDA-231 cells = experiment: Three-dimensional culture of MDA-231.shp53 cells; format: cell-based; conditions: 3D culture 8 days, fatostatin 2 or 20 μM added day 1
Description: FIG. 2. MDA-231.shp53 cells were grown in 3D cultures for 8 days and treated with (A) DMSO, (B) Fatostatin 2 μM or (C) Fatostatin 20 μM. Drugs were added on day 1. Representative DIC images are shown. Scale bar, 200 μm.
as §2
MDA-231.shp53 cells were grown in 3D cultures for 8 days and treated with DMSO and fatostatin (2 or 20 μM). Drugs were added on day 1. Representative DIC images are shown. FIG. 2. Scale bar, […].

MDA-468 cells = experiment: Three-dimensional culture of MDA-468.shp53 cells; format: cell-based; conditions: 3D culture 10 days, fatostatin 2 or 20 μM added Day 1
Description: as §1, with “FIG. 4.” for “FIG. 3.”, “inhibits MDA-468” for “inhibits SKBR3”, “Culture. MDA-468.shp53” for “Culture. SKBR3”, “for 10” for “for 8”
as §2
MDA-468.shp53 cells were grown in 3D cultures for 10 days treated with DMSO, Fatostatin (2 μM) or (20 μM). Drugs were added on Day 1.

[2] = mice, after administration of 23 mg/kg; cited from earlier work

Structure (SMILES)	cell growth in 3D culture (SKBR3 cells)	normalizing the abnormal 3D morphology (SKBR3 cells)	level of mutant p53 binding to the HMG-CoA reductase gene promoter [1]	cell growth in 3D culture (MDA-231 cells)	normalizing the abnormal 3D morphology (MDA-231 cells)	cell growth in 3D culture (MDA-468 cells)	normalizing the abnormal 3D morphology (MDA-468 cells)	oral availability [2]
CCCc1cc(-c2nc(-c3ccc(C)cc3)cs2)ccn1 [fatostatin, 2-Propyl-4-(4-(p-tolyl)thiazol-2-yl) pyridine]	inhibited	dramatic effect on normalizing the abnormal 3D morphology	significantly reduced	inhibited	dramatic effect on normalizing the abnormal 3D morphology	inhibited	dramatic effect on normalizing the abnormal 3D morphology	
CCCc1cc(-c2nc(-c3ccc(NS(C)(=O)=O)cc3)cs2)ccn1 [N-(4-(2-(2-Propylpyridin-4-yl)thiazol-4-yl)phenyl)methanesulfonamide]								demonstrated
